Article PMC10227015, “From a drug repositioning to a structure-based drug design approach to tackle acute lymphoblastic leukemia” (Nature Communications, 2023)
Where two headings read alike, the source gives them in different places. Values belong to the compound of their own block, whether it stands above or below them.

How the values were obtained:
[1] = tested on: dCK-C3S-S74E; assay: Enzymatic assay (PK/LDH coupled), dC phosphorylation by dCK in the presence of UTP; format: biochemical, human; settings: for ENZYMATIC ASSAY (Activation/Inhibition): presence of UTP
In short: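 Activation versus inhibition was judged with 1 mM UTP, 200 µM dC and 2 μM dCK-C3S-S74E, using pyruvate kinase/lactate dehydrogenase coupling that tracks NADH fluorescence decrease at 460 nm. Buffer was HEPES pH 7.5 with MgCl2, KCl and DTT. Rates came from linear slopes, expressed relative to compound-free control.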

[2] = tested on: dCK-C3S-S74E; assay: Thermal shift assay (TSA); settings: for ΔTm, dCK thermal stabilization (TSA): 5 μM protein, 50 μM compound; for THERMAL SHIFT ASSAY +Tm (°): mean ± SD
[3] = Acute in vivo toxicity, unique IP injection; settings: male, mouse, in vivo; Swiss mice, IP, unique injection; read-out: Maximum tolerated dose
Protocol: (§1) To evaluate the in vivo toxicity selected compounds were injected by intraperitoneal (IP) route to 7 weeks-old male Swiss mice (n = 2) at 10, 20, 40, 50, or 80 mg/kg by unique injection. […] Compounds were administered in their hydrochloride salt forms. Mice were then observed closely for the next one hour, then every hour for 8 h. Observations were continued for 72 h for signs of pain or toxicity such as change in the behavior and in the activity in the cage (decreased locomotion) or change in the appearance (curved back, eyes half-closed, bristle hair, hips hollowed out). In vivo toxicity of compound OR0642 at 40 and 80 mg/kg was also assessed in the NOD-SCID-IL2Rγc null (NSG) mice model for 2 weeks in the presence and absence of dT to confirm the safety of the compound. […]. Blood samples were collected and spun at 10,000 × g prior to collecting the plasma supernatants. All plasma samples were frozen at −80 °C before sample processing. 13 μl of each plasma sample was mixed with 33 μl of acetonitrile to precipitate proteins and extract the compound. Samples were vortexed for 5 min and then placed in an ultrasonic bath for 1 min. The precipitated proteins were sedimented by centrifugation (15,000 × g, 5 min, 16 °C). Supernatants were transferred to a microplate to be analyzed by LC–MS/MS. All samples were analyzed with a UHPLC coupled to a Shimadzu LC-MS 8030 triple quadrupole. The solutions of a standard range, prepared with plasma from untreated mice, were analyzed in the same series of injections.

[4] = tested on: CCRF-CEM cell line; assay: CCRF-CEM proliferation, compound alone (nonspecific toxicity); format: cell-based, human; settings: for Cell proliferation of the CCRF-CEM cell line Mean (% prolif): 72 h
Protocol: The dCK cellular assay was set up to assess the ability to inhibit dCK activity in a cellular model. The model was developed with a T-cell acute lymphoblastic leukemia cell line (CCRF-CEM), because of its high dependence on the SP, thus on dCK activity. Cellular assays were performed to assess the inhibition of cell proliferation under two conditions: (i) in the presence of the compound alone to determine the nonspecific effect on cells, independent of dCK (nonspecific toxicity) and (ii) in the presence of an inhibitor of the DNP to determine the ability of compounds to inhibit dCK and decrease tumor proliferation (activity on dCK). The inhibitor of the DNP chosen for the experiments was thymidine (dT), a physiological inhibitor of ribonucleotide reductase which arrests cell proliferation in phase S. The dTTP produced via thymidine kinase from dT acts as a RNR inhibitor by an allosteric regulation of the R1 subunit. The addition of the nucleoside deoxycytidine (dC) in the medium allows the rescue of cell proliferation by passing only through the salvage pathway, mediated by dCK. dC needs to be added exogenously to mimic physiological concentrations because it is not present in the cell culture medium, on the contrary to mouse model, in which it is naturally present in the serum. Therefore, cell proliferation under these conditions (+dT +dC) is dCK dependent and it is possible to determine the IC50 of dCK inhibitors on the inhibition of cell proliferation. Results are expressed as % cell proliferation relative to the control with DMSO.
The amount of reduced dye formed by metabolically active cells was quantified by its fluorescence measured at 560 nm (excitation) and 590 nm (emission) in a microplate reader (CLARIOstar, BMG Labtech). A blank well without cells was used as a background control. Each experiment was performed at least three times (with technical triplicates) and data are presented as the mean ± SD.

[5] = Plasma pharmacokinetics after IP administration; format: in vivo; settings: male, Swiss, mouse, mice
Protocol: as §1

dCK-C3S-S74E, sequence (P27707 whole entry S74E, form open): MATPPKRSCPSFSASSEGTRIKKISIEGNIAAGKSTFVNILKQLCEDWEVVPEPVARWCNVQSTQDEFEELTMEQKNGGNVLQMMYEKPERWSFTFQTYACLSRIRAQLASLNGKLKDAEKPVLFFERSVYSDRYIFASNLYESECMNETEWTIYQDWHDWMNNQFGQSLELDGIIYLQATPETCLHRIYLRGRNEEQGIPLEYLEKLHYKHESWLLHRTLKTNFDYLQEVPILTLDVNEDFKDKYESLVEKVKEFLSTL

- ENZYMATIC ASSAY (Activation/Inhibition) [1]: A/I
- ΔTm, dCK thermal stabilization (TSA) [2]: 16.7 °C
- Thermal Shift Assay Mean (ΔTm (º)) ([2]; Figure 2b): 16.7 º
- THERMAL SHIFT ASSAY +Tm (°) [2]: 16.7 ± 0.3 °
Structure (SMILES): Cc1ccc(-c2ccc(CN3CCN(C)CC3)cc2)cc1Nc1nc(-c2nccc(N)n2)cs1 [OR0274]

Structure (SMILES): CCCN(c1nc(-c2nc(N)cc(N)n2)cs1)c1cc(-c2ccc(CCN3CCN(C)CC3)nc2)ccc1C [OR0602]
- MTD at 72 h [3]: 10 mg/kg
- nonspecific cellular toxicity ([4]; CCRF-CEM, absence of dT + dC): without an increase in nonspecific cellular toxicity
- ENZYMATIC ASSAY (Activation/Inhibition) [1]: I
- Cmax ([5]; dose 10 mg/Kg): 960 ± 40 nM
- Tmax ([5]; dose 10 mg/Kg): 1 h
- half-life ([5]; dose 10 mg/Kg, read-out: T ½ (converted)): 2 ± 0.233 h
- ΔTm, dCK thermal stabilization (TSA) [2]: 19.5 °C
- Thermal Shift Assay Mean (ΔTm (º)) ([2]; Figure 2b): 19.7 º
- THERMAL SHIFT ASSAY +Tm (°) [2]: 19.5 ± 0.5 °

Structure (SMILES): Cc1cn([C@H]2C[C@H](O)[C@@H](CO)O2)c(=O)[nH]c1=O [dT, thymidine]
- Cell proliferation of the CCRF-CEM cell line Mean (% prolif) ([4]; dT 111 µM alone): 33.2%

Structure (SMILES): CCCN(c1nc(-c2nc(N)cc(N)n2)cs1)c1cc(-c2ccc(S(=O)(=O)N3CCN(C)CC3)c(OC)c2)ccc1C [OR0635]
- MTD at 72 h [3]: > 40 mg/kg
- ENZYMATIC ASSAY (Activation/Inhibition) [1]: I
- Cmax ([5]; dose 40 mg/Kg): 2000 ± 200 nM
- Tmax ([5]; dose 40 mg/Kg): 1.5 h
- half-life ([5]; dose 40 mg/Kg, read-out: T ½ (converted)): 6.22 ± 3.38 h
- half-life ([5]; read-out: half-life): > 5 h
- ΔTm, dCK thermal stabilization (TSA) [2]: 20.4 °C
- ΔTm (º) (TSA) ([2]; Figure 2a, mean): 20.4 º
- Thermal Shift Assay Mean (ΔTm (º)) ([2]; Figure 2b): 20.7 º
- THERMAL SHIFT ASSAY +Tm (°) [2]: 20.40 ± 0.9 °

- Enzymatic activity (UTP) Mean (% activity) ([1]; 0.156 µM): 93.59%
- Enzymatic activity (UTP) Mean (% activity) ([1]; 0.31 µM): 84.70%
- Enzymatic activity (UTP) Mean (% activity) ([1]; 0.625 µM): 90.40%
- Enzymatic activity (UTP) Mean (% activity) ([1]; 1.25 µM): 99.44%
- Enzymatic activity (UTP) Mean (% activity) ([1]; 2.5 µM): 135.24%
- Enzymatic activity (UTP) Mean (% activity) ([1]; 5 µM): 164.65%
- Enzymatic activity (UTP) Mean (% activity) ([1]; 10 µM): 178.80%
- Enzymatic activity (UTP) Mean (% activity) ([1]; 20 µM): 174.40%
- Enzymatic activity (UTP) Mean (% activity) ([1]; 40 µM): 165.28%
- Enzymatic activity (UTP) Mean (% activity) ([1]; 80 µM): 150.42%
- Enzymatic activity (UTP) Mean (% activity) ([1]; 160 µM): 147.75%
- effect on dCK enzymatic activity, activation versus inhibition ([1]; UTP 1 mM, dC 200 µM): shifted from activators to inhibitors
- ENZYMATIC ASSAY (Activation/Inhibition) [1]: A/I
- ΔTm, dCK thermal stabilization (TSA) [2]: 17.3 °C
- Thermal Shift Assay Mean (ΔTm (º)) ([2]; Figure 1b): 17.3 º
- THERMAL SHIFT ASSAY +Tm (°) [2]: 17.3 ± 0.2 °
Structure (SMILES): Cc1ccc(NC(=O)c2ccc(CN3CCN(C)CC3)cc2)cc1Nc1nc(-c2nc(N)cc(N)n2)cs1 [dCKi2, N-(3-((4-(4,6-diaminopyrimidin-2-yl)thiazol-2-yl)amino)-4-methylphenyl)-4-((4-methylpiperazin-1-yl)methyl)benzamide]
- Cell proliferation of the CCRF-CEM cell line Mean (% prolif) ([4]; compound 10 µM alone): 78.4%
